This assay deals with T1, Prostatic acid phosphatase (Homo sapiens, UniProt P15309).
T1 sequence (P15309 whole entry): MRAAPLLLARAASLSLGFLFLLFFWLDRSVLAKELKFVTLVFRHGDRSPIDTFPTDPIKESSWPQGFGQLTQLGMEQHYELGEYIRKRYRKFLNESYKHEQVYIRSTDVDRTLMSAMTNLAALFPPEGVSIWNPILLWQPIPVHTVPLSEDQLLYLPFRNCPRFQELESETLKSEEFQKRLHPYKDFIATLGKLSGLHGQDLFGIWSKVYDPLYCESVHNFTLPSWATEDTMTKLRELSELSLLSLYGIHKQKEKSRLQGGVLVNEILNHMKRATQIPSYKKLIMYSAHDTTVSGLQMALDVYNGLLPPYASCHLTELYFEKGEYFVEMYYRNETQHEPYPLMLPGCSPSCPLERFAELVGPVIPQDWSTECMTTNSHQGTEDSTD
As to the kind of experiment: Inhibition of human prostatic acid phosphatase.
With `C[C@H](N[C@@H](c1ccccc1)P(=O)(O)O)c1ccccc1`, the half-maximal inhibitory concentration (IC50) was 1.21 µM.
`C[C@@H](N[C@H](c1ccccc1)P(=O)(O)O)c1ccccc1` registered an IC50 of 0.026 µM.
Compound `COc1ccc([C@@H](N[C@H](C)c2ccccc2)P(=O)(O)O)cc1` had an IC50 of 0.018 µM.
To `COc1ccc([C@H](N[C@@H](C)c2ccccc2)P(=O)(O)O)cc1` belongs 1.07 µM.

One may read the IC50 as the point on the concentration scale where inhibition reaches its midpoint. Read a high IC50 as lower potency.
